# Where two headings read alike, the source gives them in different places. Starred links: 1 amine or outer side, 2 acyl side, 3 side chain; linkers in the order of their positions; H or OH if unused. Non-standard residues stand in square brackets, D forms with d. Residues, ends and D or L forms follow the SMILES beside them. Groups on a side chain read outwards from the residue. ξ: configuration not given here. *: point of attachment. C20 diacid = O=C(O)CCCCCCCCCCCCCCCCCCC(=O)*; γGlu = O=C(O)[C@H](CCC(=O)[*:2])N[*:1]; αMeL = CC(C)C[C@](C)(N)C(=O)O; αMeK = C[C@](N)(CCCCN)C(=O)O; ξIva = CCC(C)(N)C(=O)O; AEEA = NCCOCCOCC(=O)O; Aib = CC(C)(N)C(=O)O
# What was measured:
# [1] = target: T1, human GIPR (Homo sapiens, UniProt P48546); experiment: cAMP HTRF agonist activity assay in CHO-K1 cells expressing GIPR; type: cell-based; settings: read-out: Activity against human GIPR (EC50 nM); also: 5% FBS, 0.1% Casein
# T1 construct: expressed in transfected cells; host or cells: CHO-K1 clonal cell line
# T1 sequence (P48546 22-466): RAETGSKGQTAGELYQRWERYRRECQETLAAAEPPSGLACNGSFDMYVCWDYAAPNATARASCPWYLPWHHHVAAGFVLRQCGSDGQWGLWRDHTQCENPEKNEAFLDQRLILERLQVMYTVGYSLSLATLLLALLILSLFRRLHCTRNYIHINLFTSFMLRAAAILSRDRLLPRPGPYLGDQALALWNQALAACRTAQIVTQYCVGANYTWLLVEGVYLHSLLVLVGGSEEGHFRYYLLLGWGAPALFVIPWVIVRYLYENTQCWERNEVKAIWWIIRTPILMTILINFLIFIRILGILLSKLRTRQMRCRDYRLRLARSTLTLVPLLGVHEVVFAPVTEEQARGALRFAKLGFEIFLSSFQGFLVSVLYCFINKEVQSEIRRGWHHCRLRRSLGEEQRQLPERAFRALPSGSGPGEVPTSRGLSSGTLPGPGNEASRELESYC
# Method in brief: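 Clonal CHO-K1 lines, 5000 cells/well, exposed to polypeptides for 30 min at 37°C. Intracellular cAMP read by HTRF (cAMP-d2 conjugate plus anti-cAMP-Eu cryptate in lysis buffer). Relative EC50 from four-parameter nonlinear fit of percent maximum response against concentration.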
# [2] = target: T2, human GCGR (Homo sapiens, UniProt P47871); experiment: cAMP HTRF agonist activity assay in CHO-K1 cells expressing GCGR; type: cell-based; as to Activity against human GCGR (EC50 nM): 5% FBS, 0.1% Casein
# T2 construct: expressed in transfected cells; host or cells: CHO-K1 clonal cell line
# Experimental: (§1) Functional activity was determined in CHO-K1 clonal cell lines expressing GIPR, GLP-1R, and GCGR. […] Each recipient cell (5000 cells/well) was added to an SV 96-well plate (Cisbio, 66PL96025) and incubated with the prepared polypeptide at 37°Cfor 30 min. The resulting increase in intracellular cAMP was quantitatively measured using the cAMP-GS dynamic HTRF assay kit (Cisbio, 62AM4PEJ). Briefly, the intracellular cAMP levels were determined by adding cAMP-d2 conjugate in cell lysis buffer, followed by the antibody anti-cAMP-Eu cryptate (also in cell lysis buffer).
# (§2) Using the maximum response percentage vs. the added polypeptide concentration, the relative EC50 values were derived through nonlinear regression analysis and fitted to a four-parameter logarithmic equation. For specific data, refer to Tables 7-1 to 7-8 below. […]
# [3] = target: T3, human GLP-1R (Homo sapiens, UniProt P43220); experiment: cAMP HTRF agonist activity assay in CHO-K1 cells expressing GLP-1R; type: cell-based; settings: read-out: Activity against human GLP-1R (EC50 nM); also: 5% FBS, 0.1% Casein
# T3 construct: expressed in transfected cells; host or cells: CHO-K1 clonal cell line
# Experimental: as §1, §2
# [4] = Pharmacokinetics in mice after single intravenous injection; design: species or system C57 mice; settings: in vivo
# Method in brief: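 Male C57 mice (~25 g, 4-6 weeks, n=3) received a single i.v. dose of 200 nmol/kg in 1×PBS. Plasma collected from 5 min to 72 h was methanol-precipitated with verapamil internal standard and quantified by LC-MS (ESI positive, MRM); PK parameters were calculated by PKSolver.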
# [5] = mouse, male C57 mice, single intravenous dose 200 nmol/kg, plasma
# T2 sequence (P47871 26-477): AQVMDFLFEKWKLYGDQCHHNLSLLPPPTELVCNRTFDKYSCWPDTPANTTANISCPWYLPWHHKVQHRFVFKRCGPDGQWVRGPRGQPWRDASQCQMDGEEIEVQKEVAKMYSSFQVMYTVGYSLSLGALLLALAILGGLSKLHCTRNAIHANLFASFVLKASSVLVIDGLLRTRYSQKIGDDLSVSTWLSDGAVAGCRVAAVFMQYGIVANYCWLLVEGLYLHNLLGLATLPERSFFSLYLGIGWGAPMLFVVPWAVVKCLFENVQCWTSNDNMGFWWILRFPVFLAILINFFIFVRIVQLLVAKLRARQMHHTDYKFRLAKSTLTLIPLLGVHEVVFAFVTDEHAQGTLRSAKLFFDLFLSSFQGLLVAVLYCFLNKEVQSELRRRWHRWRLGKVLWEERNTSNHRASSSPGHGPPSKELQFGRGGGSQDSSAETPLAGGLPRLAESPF
# T3 sequence (P43220 24-463): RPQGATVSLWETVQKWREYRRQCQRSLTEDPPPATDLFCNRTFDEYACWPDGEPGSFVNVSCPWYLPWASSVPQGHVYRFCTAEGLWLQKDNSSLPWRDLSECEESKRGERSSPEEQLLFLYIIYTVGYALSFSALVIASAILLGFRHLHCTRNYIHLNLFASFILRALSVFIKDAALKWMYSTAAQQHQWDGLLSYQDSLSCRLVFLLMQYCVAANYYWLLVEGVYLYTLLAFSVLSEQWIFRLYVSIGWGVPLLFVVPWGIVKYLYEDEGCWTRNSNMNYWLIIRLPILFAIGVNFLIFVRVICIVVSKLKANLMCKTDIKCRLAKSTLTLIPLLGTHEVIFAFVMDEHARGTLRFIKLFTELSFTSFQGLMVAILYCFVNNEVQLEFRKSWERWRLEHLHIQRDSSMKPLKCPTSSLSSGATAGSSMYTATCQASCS
smiles,measurement,setting,value
CC[C@H](C)[C@H](NC(=O)[C@H](CO)NC(=O)[C@H](Cc1ccc(O)cc1)NC(=O)[C@H](CC(=O)O)NC(=O)[C@H](CO)NC(=O)[C@@H](NC(=O)[C@H](Cc1ccccc1)NC(=O)[C@@H](NC(=O)CNC(=O)[C@H](Cc1c[nH]cn1)NC(=O)C(C)(C)NC(=O)[C@@H](N)Cc1c[nH]cn1)[C@@H](C)O)[C@@H](C)O)C(=O)N[C@@H](CC(C)C)C(=O)N[C@@H](CC(C)C)C(=O)N[C@@H](CCC(=O)O)C(=O)N[C@@H](CCCCNC(=O)COCCOCCNC(=O)COCCOCCNC(=O)CC[C@H](NC(=O)CCCCCCCCCCCCCCCCCCC(=O)O)C(=O)O)C(=O)N[C@@H](CCCCN)C(=O)N[C@@H](C)C(=O)N[C@@H](C)C(=O)N[C@@H](CCC(N)=O)C(=O)N[C@@H](CCC(=O)O)C(=O)N[C@@H](Cc1ccccc1)C(=O)N[C@H](C(=O)N[C@@H](CCC(=O)O)C(=O)N[C@@H](Cc1c[nH]c2ccccc12)C(=O)N[C@@H](CC(C)C)C(=O)N[C@@H](CC(C)C)C(=O)N[C@@H](C)C(=O)N[C@H](CCC(=O)O)C(=O)NCC(=O)N1CCC[C@H]1C(=O)N[C@@H](CO)C(=O)N[C@@H](CO)C(=O)NCC(=O)N[C@@H](C)C(=O)N1CCC[C@H]1C(=O)N1CCC[C@H]1C(=O)N1CCC[C@H]1C(=O)N[C@@H](CO)C(N)=O)C(C)C [Compound 0151],EC50,[1],0.004 nM
same,EC50,[2]; read-out: Activity against human GCGR (EC50 nM),0.055 nM
CC[C@H](C)[C@H](NC(=O)[C@](C)(CCCCN)NC(=O)[C@H](CO)NC(=O)[C@H](Cc1ccc(O)cc1)NC(=O)[C@H](CC(=O)O)NC(=O)[C@H](CO)NC(=O)[C@@H](NC(=O)[C@H](Cc1ccccc1)NC(=O)[C@@H](NC(=O)CNC(=O)[C@H](Cc1c[nH]cn1)NC(=O)C(C)(C)NC(=O)[C@@H](N)Cc1c[nH]cn1)[C@@H](C)O)[C@@H](C)O)C(=O)N[C@@H](CC(C)C)C(=O)N[C@@H](CCC(=O)O)C(=O)N[C@@H](CCCCNC(=O)COCCOCCNC(=O)COCCOCCNC(=O)CC[C@H](NC(=O)CCCCCCCCCCCCCCCCCCC(=O)O)C(=O)O)C(=O)N[C@@H](CCC(N)=O)C(=O)N[C@@H](C)C(=O)N[C@@H](C)C(=O)NC(C)(CC)C(=O)N[C@@H](CCC(=O)O)C(=O)N[C@@H](Cc1ccccc1)C(=O)N[C@H](C(=O)N[C@@H](CCC(=O)O)C(=O)N[C@@H](Cc1c[nH]c2ccccc12)C(=O)N[C@@H](CC(C)C)C(=O)N[C@@H](CC(C)C)C(=O)N[C@@H](C)C(=O)NCC(=O)NCC(=O)N1CCC[C@H]1C(=O)N[C@@H](CO)C(=O)N[C@@H](CO)C(=O)NCC(=O)N[C@@H](C)C(=O)N1CCC[C@H]1C(=O)N1CCC[C@H]1C(=O)N1CCC[C@H]1C(=O)N[C@@H](CO)C(N)=O)C(C)C (stereo partly shown) [Compound 0130] (H-H[Aib]HGTFTSDYS[αMeK]ILEK([AEEA-AEEA-γGlu-C20 diacid])QAA[ξIva]EFVEWLLAGGPSSGAPPPS-NH2),EC50,[2],0.03 nM
CC[C@H](C)[C@H](NC(=O)[C@H](CO)NC(=O)[C@H](Cc1ccc(O)cc1)NC(=O)[C@H](CC(=O)O)NC(=O)[C@H](CO)NC(=O)[C@@H](NC(=O)[C@H](Cc1ccccc1)NC(=O)[C@@H](NC(=O)CNC(=O)[C@H](Cc1c[nH]cn1)NC(=O)C(C)(C)NC(=O)[C@@H](N)Cc1c[nH]cn1)[C@@H](C)O)[C@@H](C)O)C(=O)N[C@@](C)(CC(C)C)C(=O)N[C@@H](CC(C)C)C(=O)N[C@@H](CCC(=O)O)C(=O)N[C@@H](CCCCNC(=O)COCCOCCNC(=O)COCCOCCNC(=O)CC[C@H](NC(=O)CCCCCCCCCCCCCCCCCCC(=O)O)C(=O)O)C(=O)N[C@@H](CCCCN)C(=O)N[C@@H](C)C(=O)N[C@@H](C)C(=O)NC(C)(CC)C(=O)N[C@@H](CCC(=O)O)C(=O)N[C@@H](Cc1ccccc1)C(=O)N[C@H](C(=O)N[C@@H](CCC(=O)O)C(=O)N[C@@H](Cc1c[nH]c2ccccc12)C(=O)N[C@@H](CC(C)C)C(=O)N[C@@H](CC(C)C)C(=O)N[C@@H](C)C(=O)NCC(=O)NCC(=O)N1CCC[C@H]1C(=O)N[C@@H](CO)C(=O)N[C@@H](CO)C(=O)NCC(=O)N[C@@H](C)C(=O)N1CCC[C@H]1C(=O)N1CCC[C@H]1C(=O)N1CCC[C@H]1C(=O)N[C@@H](CO)C(N)=O)C(C)C (stereo partly shown) [Compound 0137] (H-H[Aib]HGTFTSDYSI[αMeL]LEK([AEEA-AEEA-γGlu-C20 diacid])KAA[ξIva]EFVEWLLAGGPSSGAPPPS-NH2),EC50,[1],0.001 nM
same,EC50,[3],0.013 nM
same,clearance,"[4]; male, C57, mouse, iv",0.163 mL/min/kg
same,half-life,"[4]; male, C57, mouse, iv",8.8 h
CCC(C)(NC(=O)[C@H](C)NC(=O)[C@H](C)NC(=O)[C@H](CCCCN)NC(=O)[C@H](CCCCNC(=O)COCCOCCNC(=O)COCCOCCNC(=O)CC[C@H](NC(=O)CCCCCCCCCCCCCCCCCCC(=O)O)C(=O)O)NC(=O)[C@H](CCC(=O)O)NC(=O)[C@H](CC(C)C)NC(=O)[C@H](CC(C)C)NC(=O)[C@](C)(CCCCN)NC(=O)[C@H](CO)NC(=O)[C@H](Cc1ccc(O)cc1)NC(=O)[C@H](CC(=O)O)NC(=O)[C@H](CO)NC(=O)[C@@H](NC(=O)[C@H](Cc1ccccc1)NC(=O)[C@@H](NC(=O)CNC(=O)[C@H](CCC(N)=O)NC(=O)C(C)(C)NC(=O)[C@@H](N)Cc1ccc(O)cc1)[C@@H](C)O)[C@@H](C)O)C(=O)N[C@@H](CCC(=O)O)C(=O)N[C@@H](Cc1ccccc1)C(=O)N[C@H](C(=O)N[C@@H](CCC(=O)O)C(=O)N[C@@H](Cc1c[nH]c2ccccc12)C(=O)N[C@@H](CC(C)C)C(=O)N[C@@H](CC(C)C)C(=O)N[C@@H](C)C(=O)NCC(=O)NCC(=O)N1CCC[C@H]1C(=O)N[C@@H](CO)C(=O)N[C@@H](CO)C(=O)NCC(=O)N[C@@H](C)C(=O)N1CCC[C@H]1C(=O)N1CCC[C@H]1C(=O)N1CCC[C@H]1C(=O)N[C@@H](CO)C(N)=O)C(C)C (stereo partly shown) [Compound 0127] (H-Y[Aib]QGTFTSDYS[αMeK]LLEK([AEEA-AEEA-γGlu-C20 diacid])KAA[ξIva]EFVEWLLAGGPSSGAPPPS-NH2),EC50,[2],0.037 nM
CC(C)C[C@H](NC(=O)[C@H](CC(C)C)NC(=O)[C@H](Cc1c[nH]c2ccccc12)NC(=O)[C@H](CCC(=O)O)NC(=O)[C@@H](NC(=O)[C@H](Cc1ccccc1)NC(=O)[C@H](CCC(=O)O)NC(=O)[C@H](CCC(N)=O)NC(=O)[C@H](C)NC(=O)[C@H](C)NC(=O)[C@H](CCCCN)NC(=O)[C@H](CCCCNC(=O)COCCOCCNC(=O)COCCOCCNC(=O)CC[C@H](NC(=O)CCCCCCCCCCCCCCCCCCC(=O)O)C(=O)O)NC(=O)[C@H](CCC(=O)O)NC(=O)[C@H](CC(C)C)NC(=O)[C@H](Cc1ccc(O)cc1)NC(=O)[C@](C)(CCCCN)NC(=O)[C@H](CO)NC(=O)[C@H](Cc1ccc(O)cc1)NC(=O)[C@H](CC(=O)O)NC(=O)[C@H](CO)NC(=O)[C@@H](NC(=O)[C@H](Cc1ccccc1)NC(=O)[C@@H](NC(=O)CNC(=O)[C@H](Cc1c[nH]cn1)NC(=O)C(C)(C)NC(=O)[C@@H](N)Cc1c[nH]cn1)[C@@H](C)O)[C@@H](C)O)C(C)C)C(=O)N[C@@H](C)C(=O)NCC(=O)NCC(=O)N1CCC[C@H]1C(=O)N[C@@H](CO)C(=O)N[C@@H](CO)C(=O)NCC(=O)N[C@@H](C)C(=O)N1CCC[C@H]1C(=O)N1CCC[C@H]1C(=O)N1CCC[C@H]1C(=O)N[C@@H](CO)C(N)=O [Compound 0104] (H-H[Aib]HGTFTSDYS[αMeK]YLEK([AEEA-AEEA-γGlu-C20 diacid])KAAQEFVEWLLAGGPSSGAPPPS-NH2),AUC(0-inf),[4]; [5],30.9 µM·h
same,C0,[4]; [5],4.22 µM
same,clearance,"[4]; mouse, male C57 mice, single intravenous dose 200 nmol/kg, plasma, read-out: CLp",0.108 mL/min/kg
same,half-life,"[4]; mouse, male C57 mice, single intravenous dose 200 nmol/kg, plasma, read-out: T1/2 (converted)",11.5 h
same,EC50,[2],0.037 nM

# Source: patent publication EP4745153A1, “GLP-1, GIP AND GCG RECEPTOR […] USE THEREOF” (Jiangsu Hengrui Pharmaceuticals Co., Ltd., priority 2023, dated 2025)
